In patent publication US20130029928A1 (priority 2010, published 2013):
Where a name gives a salt, the structure may show the parent alone. Read-outs that look alike come from different tables or passages of the source.

What was measured:
MDA-MB-157 [1] = test: ATP depletion cytotoxicity assay 48 hr; format: cell-based, human; details: MDA-MB-157; CXR1002 300 μM; 48 hours
Description: (§2) Assay replicates were independent in time and up to 4 replicates were performed per cell line.
(§3) Cells were plated at the optimal plating density for that cell line in 96-well plates and allowed to attach overnight. The next day, the medium was removed and replaced with fresh medium containing the dose ranges of test items. […] There were 3 replicates for each test item concentration.
(§4) Following exposure to Test Items, the CellTitre-Glo Luminescent Cell Viability Assay to measure ATP content was performed according to the manufacturer's detailed instructions (Promega Corporation, Technical Bulletin No. 288, and Cell notes, Issue 10, 2004).
(§5) Cells were plated at the optimal plating density for that cell line in 96-well plates and allowed to attach overnight. The next day, cells were pre-treated with the inhibitors UO126 or LY294002 (see Tables 18 & 20) for 2 hrs, the medium was removed and replaced with fresh medium containing the appropriate dose of the test item. […] Cells were exposed to these compounds in Roswell Park Memorial Institute (RPMI) medium containing 10% Foetal Calf Serum (FCS) and 2 mM Glutamine at 37° C. and 5% CO2 for 48 hours. There were 3 replicates for each test item concentration.
(§6) Following exposure to Test Items, the CellTitre-Glo Luminescent Cell Viability Assay to measure ATP content will be performed according to the manufacturer's detailed instructions (Promega Corporation, Technical Bulletin No. 288, and Cell notes, Issue 10, 2004).

[2] = Dietary APFO (300 ppm) study in rats: plasma glucose, triglycerides, cholesterol, AST, ALT, APFO level; format: in vivo, rat; design: Triglycerides / Cholesterol / Glucose: unit not given here; details: male, Sprague Dawley, rat, oral, 300 ppm in diet
Description: (§1) Rats were sacrificed at 7, 14, 28 and 84 days. Blood from each study animal was taken by cardiac puncture into lithium/heparin-coated tubes for separation of plasma. Plasma was analysed for glucose, triglycerides, cholesterol, AST and ALT (unpublished data).

Male Sprague Dawley rats [3] = test: as above; format: in vivo, rat; design: Triglycerides / Cholesterol / Glucose: unit not given here; details: 300 ppm in diet
Description: as §1

[4] = tested on: hepatic peroxisome proliferation (PPARα); test: Hepatic peroxisome proliferation (cyanide-insensitive palmitoyl CoA oxidation) in rats; format: in vivo, rat; details: administration to rats
Excerpt: The earliest recognised characteristic of PPARα agonists was their ability to induce peroxisome proliferation in hepatocytes. The PPARα response is reflected in the increased transcription of mitochondrial and peroxisomal lipid metabolism, sterol, and bile acid biosynthesis and retinol metabolism genes (Andersen (2008)).
Peroxisome proliferation occurs as a result of the interaction of a chemical with PPARα. This leads to an increase in the synthesis of peroxisomal and lipid-metabolising enzymes and, consequently, an increase in size and number of peroxisomes. Cyanide-insensitive palmitoyl CoA oxidation is an accepted marker of peroxisome proliferation, and was used to highlight PPARα activation in vitro and in vivo.

normal pancreas tissue = test: Microarray ER stress response in normal pancreas (28 day study in rat); format: in vivo
Excerpt: Chemical toxicants such as tunicamycin and thapsigargin cause an accumulation of unfolded protein aggregates in the ER lumen (Schroder (2008)), (Harding (2002)), (Zhang (2008)). Whilst it is fair to say that many chemicals, drugs and toxicants induce ER stress, not all do. […] The phthalate DEHP and the PPARα agonist WY14,643 were also studied.

HT-29 = test: SRB cytotoxicity assay 48 hr; format: cell-based, human; details: Homo sapiens, HT-29, 48 h, read-out: IC50 Values After 48 Hrs Exposure
Description: (§7) The SRB assay was performed according to the method specified by the NIC/NIH. […] Assay replicates were independent in time and up to 4 replicates were performed per cell line.

CaCo-2 = test: SRB cytotoxicity assay 48 hr; format: cell-based, human; details: read-out: IC50 Values After 48 Hrs Exposure
Description: as §7

MCF-7 = test: SRB cytotoxicity assay 48 hr; format: cell-based, human; details: Homo sapiens, MCF7, 48 h, read-out: IC50 Values After 48 Hrs Exposure
Description: as §7

MDA-MB-157 [5] = test: SRB cytotoxicity assay 48 hr; format: cell-based, human; details: Homo sapiens, MDA-MB-157, 48 h, read-out: IC50 Values After 48 Hrs Exposure
Description: as §7

HepG2 = test: SRB cytotoxicity assay 48 hr; format: cell-based, human; details: read-out: IC50 Values After 48 Hrs Exposure
Description: as §7

Hep3B = test: SRB cytotoxicity assay 48 hr; format: cell-based, human; details: Homo sapiens, 48 h, read-out: IC50 Values After 48 Hrs Exposure
Description: as §7

PC3 = test: SRB cytotoxicity assay 48 hr; format: cell-based, human; details: Homo sapiens, PC-3, 48 h, read-out: IC50 Values After 48 Hrs Exposure
Description: as §7

A549 = test: SRB cytotoxicity assay 48 hr; format: cell-based, human; details: Homo sapiens, A549, 48 h, read-out: IC50 Values After 48 Hrs Exposure
Description: as §7

A2780 = test: SRB cytotoxicity assay 48 hr; format: cell-based, human; details: Homo sapiens, A2780, 48 h, read-out: IC50 Values After 48 Hrs Exposure
Description: as §7

A375 = test: SRB cytotoxicity assay 48 hr; format: cell-based, human; details: Homo sapiens, A-375, 48 h, read-out: IC50 Values After 48 Hrs Exposure
Description: as §7

[6] = tested on: panel of human tumour-derived cell lines; test: BrdU incorporation (cell proliferation) in the SRB cell line panel; format: cell-based; details: 48 hrs
[7] = tested on: panel of human tumour-derived cell lines; test: Hoechst 3342 staining (apoptotic cells) in the SRB cell line panel; format: cell-based
CYP2C9 = CYP2C9 (Homo sapiens, UniProt P11712); test: Cytochrome P450 isozyme inhibition; format: in vitro ADME; details: under the conditions used (unpublished data); read-out: IC50 towards CYP2C9
Sequence of CYP2C9 (P11712 whole entry): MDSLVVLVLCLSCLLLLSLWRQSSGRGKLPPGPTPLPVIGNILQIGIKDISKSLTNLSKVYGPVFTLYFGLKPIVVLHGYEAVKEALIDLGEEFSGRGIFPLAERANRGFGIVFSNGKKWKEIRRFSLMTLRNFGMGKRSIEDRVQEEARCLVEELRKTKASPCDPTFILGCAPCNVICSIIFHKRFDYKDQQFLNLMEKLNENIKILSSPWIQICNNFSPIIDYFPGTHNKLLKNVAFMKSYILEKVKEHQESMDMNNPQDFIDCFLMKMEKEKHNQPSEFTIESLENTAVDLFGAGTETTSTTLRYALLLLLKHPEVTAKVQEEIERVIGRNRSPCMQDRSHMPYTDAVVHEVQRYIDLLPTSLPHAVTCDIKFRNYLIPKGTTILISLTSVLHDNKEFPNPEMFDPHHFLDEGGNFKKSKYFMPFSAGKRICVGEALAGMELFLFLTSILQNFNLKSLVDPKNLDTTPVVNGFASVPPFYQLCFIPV
Excerpt: There is no evidence that APFO is metabolised in mammals once dissociated to form perfluorooctanoate.

Male Sprague Dawley rats [8] = test: Dietary APFO (300 ppm) study in rats: plasma glucose, triglycerides, cholesterol, AST, ALT, APFO level; format: in vivo, rat; design: Glucose / Triglycerides / ALT / AST: unit not given here; details: for ALT / AST / Glucose / Triglycerides: plasma, 300 ppm in diet
[9] = without reported adverse effects; cited from earlier work
SW1353 = test: ATP depletion cytotoxicity assay 48 hr; format: cell-based, human; details: DPQ 20 μM + CXR1002 0-1 mM; SW1353
Description: as §4
(§8) Cells were plated at the optimal plating density for that cell line in 96-well plates and allowed to attach overnight. […] Cells were exposed to these compounds in Roswell Park Memorial Institute (RPMI) medium containing 10% Foetal Calf Serum (FCS) and 2 mM Glutamine at 37° C. and 5% CO2 for 48 hours. There were 3 replicates for each test item concentration.
as §6

HPAFII = test: ATP depletion cytotoxicity assay 48 hr; format: cell-based, human; details: DPQ 20 μM + CXR1002 0-1 mM; HPAFII
Description: as §4, §8, §6

Capan2 = test: ATP depletion cytotoxicity assay 48 hr; format: cell-based, human; details: DPQ 20 μM + CXR1002 0-1 mM; Capan2
Description: as §2, §3, §4, §5, §6

[10] = tested on: panel of tumour cell lines; test: ATP cytotoxicity assay on the panel of tumour cell lines (CXR1002 alone; test items alone vs combined with CXR1002); details: a number of the cell lines; single dose of CXR1002; 48 hours
Description: as §7
Cells were plated at the optimal plating density for that cell line in 96-well plates and allowed to attach overnight. The next day, the medium was removed and replaced with fresh medium containing the dose ranges of test items. The cells were exposed to 5-FU, cisplatin, docetaxel, doxorubicin, geldanamycin, gemcitabine, rapamycin or roscovitine in Roswell Park Memorial Institute (RPMI) medium containing 10% Foetal Calf Serum (FCS) and 2 mM Glutamine at 37° C. and 5% CO2 for 48 hours. […] There were 3 replicates for each test item concentration.
as §4

H (chondrosarcoma) = test: ATP depletion cytotoxicity assay 48 hr; details: LY294002 12.5 μM + CXR1002 0-1 mM; sarcoma cell line H most notably
Description: as §2, §3
Cells were plated at the optimal plating density for that cell line in 96-well plates and allowed to attach overnight. The next day, cells were pre-treated with the inhibitors UO126 or LY294002 (see Tables 18 & 20) for 2 hrs, the medium was removed and replaced with fresh medium containing the appropriate dose of the test item. […] Cells that were to be treated with DPQ received no pre-treatment. […] There were 3 replicates for each test item concentration.

[11] = molecular target: liver X receptor β (LXRβ) (Homo sapiens, UniProt P55055); details: ref (14); cited from earlier work
Sequence of liver X receptor β (LXRβ) (P55055 whole entry, species assumed): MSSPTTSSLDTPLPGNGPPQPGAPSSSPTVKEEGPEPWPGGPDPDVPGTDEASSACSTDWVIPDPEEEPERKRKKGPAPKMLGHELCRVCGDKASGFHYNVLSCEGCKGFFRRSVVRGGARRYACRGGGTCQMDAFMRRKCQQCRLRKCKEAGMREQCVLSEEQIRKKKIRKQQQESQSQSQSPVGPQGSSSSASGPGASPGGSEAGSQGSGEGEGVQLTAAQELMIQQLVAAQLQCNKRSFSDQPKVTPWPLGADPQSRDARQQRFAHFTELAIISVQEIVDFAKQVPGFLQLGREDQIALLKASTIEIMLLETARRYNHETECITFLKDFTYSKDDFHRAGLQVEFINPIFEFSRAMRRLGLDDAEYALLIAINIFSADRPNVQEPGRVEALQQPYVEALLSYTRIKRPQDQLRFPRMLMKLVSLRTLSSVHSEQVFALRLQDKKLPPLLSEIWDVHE

[12] = molecular target: retinoid X receptor α (RXRα) (Homo sapiens, UniProt P19793); details: ref (14); cited from earlier work
Sequence of retinoid X receptor α (RXRα) (P19793 whole entry, species assumed): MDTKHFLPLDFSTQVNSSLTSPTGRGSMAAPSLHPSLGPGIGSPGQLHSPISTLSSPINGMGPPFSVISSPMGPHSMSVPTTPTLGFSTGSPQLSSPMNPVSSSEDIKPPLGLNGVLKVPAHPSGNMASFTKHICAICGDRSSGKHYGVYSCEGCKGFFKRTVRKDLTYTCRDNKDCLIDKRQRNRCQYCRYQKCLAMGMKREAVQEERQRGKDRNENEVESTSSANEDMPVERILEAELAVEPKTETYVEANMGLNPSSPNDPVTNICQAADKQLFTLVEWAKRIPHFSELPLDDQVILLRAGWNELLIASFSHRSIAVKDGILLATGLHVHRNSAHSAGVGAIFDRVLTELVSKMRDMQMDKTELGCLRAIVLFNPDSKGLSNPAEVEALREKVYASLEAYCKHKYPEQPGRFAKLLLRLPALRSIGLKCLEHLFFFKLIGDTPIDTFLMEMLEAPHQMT

primary rat hepatocytes = details: Bjork (2009); cited from earlier work
[13] = cited from earlier work
[14] = in vivo; cited from earlier work
rats [15] = details: cited from earlier work
rats [16] = details: doses below those causing maternal toxicity; cited from earlier work
[17] = following oral exposure; literature; cited from earlier work
Breast cancer cell lines = details: read-out: IC50 (Concentration, literature); Mol. Cancer Ther. (2002); cited from earlier work

With `O=c1[nH]cc(F)c(=O)[nH]1` [5-FU, 5-Fluorouracil, reference compound] the “sensitivity to combination with CXR1002 vs test item alone” value (shortened to “sensitivity … vs test item alone”) (MDA-MB-157 [1]) was “apparent increase in sensitivity”.
Work on `O=C(O)C(F)(F)C(F)(F)C(F)(F)C(F)(F)C(F)(F)C(F)(F)C(F)(F)F` [APFO, Ammonium Perfluorooctanoate] yielded a concentration at 2 weeks ([2]; week 2) of 157 ± 77.8 µM, a concentration at 4 weeks ([2]; week 4) of 257 ± 38.9 µM and a Triglycerides (Male Sprague Dawley rats [3]; Week 1) of 0.41 ± 0.12. For the same compound, the Cholesterol (Male Sprague Dawley rats [3]; Week 2) was 1.55 ± 0.27, the Triglycerides (Male Sprague Dawley rats [3]; Week 2) was 0.62 ± 0.13 and the Cholesterol (Male Sprague Dawley rats [3]; Week 4) was 1.70 ± 0.29. The Glucose (Male Sprague Dawley rats [3]; Week 4) was 15.34 ± 2.64, the Cholesterol (Male Sprague Dawley rats [3]; Week 12) was 1.75 ± 0.33 and the Glucose (Male Sprague Dawley rats [3]; Week 12) was 13.12 ± 1.23. For the same compound, the “hepatic peroxisome proliferation (induction of cyanide-insensitive palmitoyl CoA oxidation)” value [4] was “led to hepatic peroxisome proliferation”, the ER stress response (normal pancreas tissue) was “not seen” and the IC50 (HT-29) was 283 ± 5.8 µM. The IC50 (CaCo-2; Homo sapiens, Caco-2, 48 h) was roughly 740 µM, the IC50 (CaCo-2) was 737 ± 245 µM and the IC50 (MCF-7) was 388 ± 227 µM. It also gave an IC50 (MDA-MB-157 [5]) of 512 ± 194 µM, an IC50 (HepG2; Homo sapiens, HepG2, 48 h) of roughly 160 µM and an IC50 (HepG2) of 167 ± 97.1 µM. The IC50 (Hep3B) was 273 ± 80.2 µM, the IC50 (PC3) was 317 ± 59.2 µM and the IC50 (A549) was 223 ± 35.4 µM. For the same compound, the IC50 (A2780) was 260 ± 28.3 µM, the IC50 (A375) was 230 ± 10 µM and the BrdU incorporation ([6]; 10 μM) was “No marked effects”. The BrdU incorporation ([6]; 30 μM) was “variable”, the BrdU incorporation ([6]; 300 μM, all but one of the cell lines) was “Significant suppression of BrdU incorporation” and the induction of apoptosis ([7]; 10 μM) was “little effect”. The induction of apoptosis ([7]; 30 μM) was “variable responses”, the induction of apoptosis ([7]; 300 μM) was “marked induction of apoptosis” and the IC50 (CYP2C9) was 0.78 µM. For the same compound, the adverse clinical observations (Male Sprague Dawley rats [8]; after one year of continuous dietary dosing, 300 ppm) was “No adverse clinical observations”, the ALT (Male Sprague Dawley rats [8]; Days 1 (so in the source)) was 101.90 ± 12.19 and the ALT (Male Sprague Dawley rats [8]; Days 2 (so in the source)) was 119.45 ± 19.27. For the same compound, the AST (Male Sprague Dawley rats [8]; Days 2 (so in the source)) was 120.00 ± 16.47, the ALT (Male Sprague Dawley rats [8]; Days 4 (so in the source)) was 98.99 ± 24.44 and the AST (Male Sprague Dawley rats [8]; Days 4 (so in the source)) was 101.80 ± 19.17. For the same compound, the ALT (Male Sprague Dawley rats [8]; Days 12 (so in the source)) was 91.89 ± 14.88, the AST (Male Sprague Dawley rats [8]; Days 12 (so in the source)) was 92.63 ± 12.19 and the Glucose (Male Sprague Dawley rats [8]; Week 1) was 14.31 ± 1.88. It also gave a Glucose (Male Sprague Dawley rats [8]; Week 2) of 16.98 ± 3.21, a Triglycerides (Male Sprague Dawley rats [8]; Week 4) of 0.57 ± 0.13 and a Triglycerides (Male Sprague Dawley rats [8]; Week 12) of 0.63 ± 0.15. The “serum concentration in workers involved in manufacture” value [9] was no more than 275 µM.
For `CCCCC(CC)COC(=O)c1ccccc1C(=O)OCC(CC)CCCC` (stereo not shown) [DEHP], the ER stress response (normal pancreas tissue) was “No evidence of ER stress response was detected”.
For `O=C1NCCc2c(OCCCCN3CCCCC3)cccc21` [DPQ, reference compound], the “sensitivity in conjunction with CXR1002 vs CXR1002 alone” value (shortened to “sensitivity … vs CXR1002 alone”) (SW1353) was “increased sensitivity”, the “sensitivity … vs CXR1002 alone” value (HPAFII) was “increased sensitivity” and the “sensitivity … vs CXR1002 alone” value (Capan2) was “increased sensitivity”.
For `COc1cccc2c1C(=O)c1c(O)c3c(c(O)c1C2=O)C[C@@](O)(C(=O)CO)C[C@@H]3O[C@H]1C[C@H](N)[C@H](O)[C@H](C)O1` [Doxorubicin, Doxorubicin hydrochloride], the “sensitivity … vs test item alone” value [10] was “increase the sensitivity”.
In the case of `O=c1cc(N2CCOCC2)oc2c(-c3ccccc3)cccc12` [LY294002, reference compound], the “cytotoxic efficacy in conjunction with CXR1002 vs CXR1002 alone” value (H (chondrosarcoma)) is reported as “increased efficacy”.
In the case of `O=C(O)C(F)(F)C(F)(F)C(F)(F)C(F)(F)C(F)(F)C(F)(F)C(F)(F)F` [PFOA, perfluorooctanoic acid], the “activation of LXRβ” value [11] is listed as “Neither liver X receptor β (LXRβ) nor the common heterodimerization partner retinoid X receptor α (RXRα) are activated”, the “activation of RXRα” value [12] is listed as “Neither liver X receptor β (LXRβ) nor the common heterodimerization partner retinoid X receptor α (RXRα) are activated” and the “concentration causing increased expression of DDIT3/CHOP/GADD153” value (primary rat hepatocytes) is listed as no less than 30 µM. The “clearance of blood levels” value ([13]; female rats, 24 hrs after dosing) was greater than 95%, the accumulation in blood ([13]; female rats, 25 mg/kg oral after 10 previous similar doses) was “does not appear to accumulate” and the “extent of biliary excretion” value ([13]; female rats) was less than 1.0%. The “time to peak blood levels” value ([13]; single gavage 25 mg/kg, rats) was 1 to 2 h, the total radioactivity absorbed ([13]; single oral dose 14C-PFOA 11 mg/kg, male rats, at 24 hrs) was “at least 93%” and the acute oral toxicity [14] was “moderate acute oral toxicity”. For the same compound, the “tumour incidence (liver, pancreas acinar cell, testes Leydig cell adenomas)” value (rats [15]; 30 ppm in the diet) was “not at 30 ppm”, the “tumour incidence (liver, pancreas acinar cell, testes Leydig cell adenomas)” value (rats [15]; 300 ppm in the diet) was “increased incidence of benign tumours” and the “teratogenic or foetotoxic effects” value (rats [16]) was “no teratogenic or foetotoxic effects”. For the same compound, the metabolism [17] was “not metabolised”.
In the case of `N#CC(=C(/N)Sc1ccccc1N)/C(C#N)=C(\N)Sc1ccccc1N` [U0126], the IC50 (Breast cancer cell lines) is listed as 10 to 20 µM.
For `Cc1cccc(Nc2cc(Cl)nc(SCC(=O)O)n2)c1C` [WY14,643], the ER stress response (normal pancreas tissue) was “No evidence of ER stress response was detected”.
With `Nc1ccn([C@@H]2O[C@H](CO)[C@@H](O)C2(F)F)c(=O)n1` [gemcitabine, Gemcitabine] the “sensitivity … vs test item alone” value [10] was “increase the sensitivity”.
For `CC[C@H](CO)Nc1nc(NCc2ccccc2)c2ncn(C(C)C)c2n1` [roscovitine, Roscovitine], the “sensitivity … vs test item alone” value [10] was “increase the sensitivity”.
